Here are results for two molecules from patent publication US7968600B2, “Medicament for preventive and therapeutic treatment of physical dysfunction caused by nerve damage” (Nanoegg Research Laboratories, Inc., priority 2007, dated 2011).

The test system of assay [1] is traumatic spinal cord injury model rats. Nature of the assay: Treadmill test (compulsory walking) in traumatic spinal cord injury model rats. It is filed as in vivo, Wistar rats. To be noted: for Number of contact to back end wall: 21st day from the injury, treadmill 8 m/min for 5 min, **p < 0.01; for number of the contact with the back end wall as compared to the control group / walking period as compared to the control group: treadmill test. As to the method: (§1) 23 of 9 weeks old female Wistar rats had on their spinal cords of the thoracic vertebrae injured under anesthesia by loading a weight of 10 g dropped from a height of 2.5 cm to prepare traumatic spinal cord injury model rats with impaired motor function of the hind limb. The 23 rats were divided into the following 3 groups: • 1st Group: 8 rats were administered orally with 3 mg/kg of 4-[(5,6,7,8-tetrahydro-5,5,8,8-tetramethyl-2-naphthalenyl)carbamoyl]benzoic acid once before the injury and then once a day. • 2nd Group: 8 rats were administered with 0.15 mg/kg of 4-[(5,6,7,8-tetrahydro-5,5,8,8-tetramethyl-2-naphthalenyl)carbamoyl]benzoic acid directly to the injured site immediately after the injury, and then administered subcutaneously once a day near the injured area. • 3rd Group: 7 rats were administered orally with 1 ml/kg of 0.5% carboxymethyl cellulose (CMC) solution as a control group.
(§2) Administration was performed every day for 21 days after the injury for each group. The motor function of the hind limb was evaluated according to the Basso-Beattie-Bresnahan (BBB) score every day up to 21st day, and 28th day after the injury. For animals with BBB scores being 10 or more, evaluation of the motor function was performed by using a treadmill (manufactured by Muromachi Kikai Co., Ltd) on the 21st and the 28th day. The treadmill tests were performed for 5 minutes with velocity of the treadmill walking surface being kept at 8 m/min. In the test, a period of time during which the animal walked with four legs was measured, and in addition, total number of the contact of the animal with the end wall of the walking surface due to the stop walking of the animal was measured, thereby motor function was evaluated.

Assay [2] shares this test system. The experiment in a line: Basso-Beattie-Bresnahan (BBB) score, motor function of the hind limb in traumatic spinal cord injury model rats. It is filed as in vivo, Wistar rats. To be noted: for BBB score: 21st day from the injury; for BBB scores compared to the control group (FIG. 1): time course after the injury. As to the method: as §1, §2
The next assay relates to regenerated nerves. To be noted: 50 μL (10 nM RA); cited from earlier work.

In the case of `CC1(C)CCC(C)(C)c2cc(NC(=O)c3ccc(C(=O)O)cc3)ccc21` [4-[(5,6,7,8-tetrahydro-5,5,8,8-tetramethyl-2-naphthalenyl)carbamoyl]benzoic acid], the “Number of contact to back end wall” value in assay [1] (oral 3.0 mg/kg once a day) was 16.0 ± 8.3(**); in assay [1] (subcutaneous 0.15 mg/kg once a day), 13.4 ± 6.7(**). In addition, the “number of the contact with the back end wall as compared to the control group” value in assay [1] (oral administration) and in assay [1] (subcutaneous administration) was “remarkable decrease” each time. The “walking period as compared to the control group” value in assay [1] (oral administration) and in assay [1] (subcutaneous administration) was “prolongation of the walking period” in each case. The BBB score is recorded as 11.43 ± 3.80 ^ in assay [2] (oral 3.0 mg/kg once a day) and 12.71 ± 2.28(*) in assay [2] (subcutaneous 0.15 mg/kg once a day, *p < 0.05). Besides, the “BBB scores compared to the control group (FIG. 1)” value in assay [2] (oral 3 mg/kg) and in assay [2] (subcutaneous 0.15 mg/kg) was “significantly improved BBB scores” throughout.
In the case of `CC1=C(/C=C/C(C)=C/C=C/C(C)=C/C(=O)O)C(C)(C)CCC1` [Vitamin A acid, all-trans retinoic acid], in the assay with regenerated nerves, the “increase of regenerated nerves” value is 30%; the “recovery in nerve and motor functions” value is “no recovery”.
